According to patent US20110071129A1, “SPIRODIAMINE-DIARYL KETOXIME DERIVATIVE” (priority 2008, published 2011):
pIC50: −log10 of the molar value.

Target: T1, human MCH-1R (Homo sapiens, UniProt Q99705)
T1 construct: expressed in transfected cells; host or cells: CHO-K1 (American Type Culture Collection), vector pEF/myc/cyto; membranes used
Experiment: MCH binding inhibition test
Conditions: inhibition of specific [125I]MCH (50 pM) binding; membranes of MCH-1R expressing CHO-K1 cells; 25° C., one hour
Method: A human MCH-1R encoding cDNA sequence [FEBS Letters, Vol. 398, 253 (1996); Biochimica et Biophisica Acta, Vol. 1401, 216 (1998)] was cloned to a plasmid vector pEF/myc/cyto (by Invitrogen Corporation). The obtained expression vector was transfected to host cells CHO-K1 (American Type Culture Collection) using Lipofectamine Plus Reagent (by Life Technology Inc.) to provide MCH-1R expression cells.
Membrane samples prepared from the MCH-1R expression cells were incubated with each test compound and 50 pM of [^125I]MCH (by NEN Co.), in an assay buffer (50 mM Tris buffer comprising 10 mM magnesium chloride, 2 mM ethylenediamine tetraacetate, 0.01% bacitracin and 0.2% bovine serum albumin; pH 7.4) at 25° C. for an hour, followed by filtration through a glass filter GF/C (by Wattman Co.). After washing the glass filter with 50 mM Tris buffer (pH 7.4) comprising 10 mM magnesium chloride, 2 mM ethylenediamine tetraacetate and 0.04% Tween-20, the radioactive activity on the glass filter was measured. The non-specific binding was measured in the presence of 1 μM human MCH, and the 50% inhibition concentration (IC50 value) of each test compound to the specific [^125I]MCH binding was determined.

T1 sequence (Q99705 whole entry): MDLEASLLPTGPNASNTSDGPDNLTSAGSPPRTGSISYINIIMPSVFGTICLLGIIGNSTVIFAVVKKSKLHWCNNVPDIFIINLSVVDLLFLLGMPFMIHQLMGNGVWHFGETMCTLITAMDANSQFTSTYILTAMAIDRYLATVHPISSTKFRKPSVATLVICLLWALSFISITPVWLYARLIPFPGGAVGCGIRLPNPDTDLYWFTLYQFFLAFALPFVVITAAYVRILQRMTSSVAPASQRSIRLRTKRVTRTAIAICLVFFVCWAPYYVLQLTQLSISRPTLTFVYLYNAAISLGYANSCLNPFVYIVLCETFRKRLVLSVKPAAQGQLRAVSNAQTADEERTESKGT

| SMILES | pIC50 |
| --- | --- |
| CCO/N=C(\c1ccc(F)c(F)c1)c1ccc(CN2CC3(CCN(c4ccc(F)nc4)C3)C2)cn1 [Example 1-10, (E)-(3,4-difluorophenyl)(5-{[6-(6-fluoro-3-pyridinyl)-2,6-diazaspiro[3.4]oct-2-yl]methyl}-2-pyridinyl)methanone O-ethyloxime] | 8.12 |
| CCO/N=C(\c1ccc(F)c(F)c1)c1ccc(CN2CCC3(CCN(c4ccnnc4)C3)C2)cn1 (centres unmarked) [Example 2-3, (E)-(3,4-difluorophenyl)(5-{[7-(4-pyrazinyl)-2,7-diazaspiro[4.4]non-2-yl]methyl}-2-pyridinyl)methanone O-ethyloxime] | 8.49 |

Further compounds by rising pIC50, results first:

| pIC50 | SMILES |
| --- | --- |
| 8.62 | CCO/N=C(\c1ccc(F)c(F)c1)c1ccc(CN2CC3(C2)CN(c2ccnc(C)c2)C3)cn1 [Example 2-24, (E)-(3,4-difluorophenyl)(5-{[6-(2-methyl-4-pyridinyl)-2,6-diazaspiro[3.3]hept-2-yl]methyl}-2-pyridinyl)methanone O-ethyloxime] |
| 9.05 | CCO/N=C(\c1ccc(F)c(F)c1)c1ccc(CN2CC3(C2)CN(c2ccn4ccnc4c2)C3)cn1 [Example 2-40, (E)-(3,4-difluorophenyl){5-[(6-imidazo[1,2-a]pyridin-7-yl-2,6-diazaspiro[3.3]hept-2-yl)methyl]-2-pyridinyl}methanone O-ethyloxime] |
| 9.44 | CCCc1cnc2cc(N3CC4(CN(Cc5ccc(/C(=N/OCC)c6ccc(F)c(F)c6)nc5)C4)C3)ccn12 [Example 2-44, (E)-(3,4-difluorophenyl)(5-{[6-(3-propylimidazo[1,2-a]pyridin-7-yl)-2,6-diazaspiro[3.3]hept-2-yl]methyl}-2-pyridinyl)methanone O-ethyloxime] |
